From patent US8691846B2, “Piperidine sulphonamide derivatives” (Hoffmann-La Roche, Inc., priority 2008, dated 2014)

molecular target: T1, human orexin-2 (hOX2) receptors (Homo sapiens, UniProt O43614); experiment: Intracellular Ca2+ mobilization assay (FLIPR), antagonism of orexin-A in CHO(dHFr-) cells expressing hOX2; format: cell-based; conditions: CHO(dHFr-)-OX2R cells; orexin-A at EC80 as agonist; Kb=IC50/(1+[A]/EC50); read-out: Kb (μM) OX2R (human)
T1 construct: expressed in transfected cells
T1 sequence (O43614 1-444): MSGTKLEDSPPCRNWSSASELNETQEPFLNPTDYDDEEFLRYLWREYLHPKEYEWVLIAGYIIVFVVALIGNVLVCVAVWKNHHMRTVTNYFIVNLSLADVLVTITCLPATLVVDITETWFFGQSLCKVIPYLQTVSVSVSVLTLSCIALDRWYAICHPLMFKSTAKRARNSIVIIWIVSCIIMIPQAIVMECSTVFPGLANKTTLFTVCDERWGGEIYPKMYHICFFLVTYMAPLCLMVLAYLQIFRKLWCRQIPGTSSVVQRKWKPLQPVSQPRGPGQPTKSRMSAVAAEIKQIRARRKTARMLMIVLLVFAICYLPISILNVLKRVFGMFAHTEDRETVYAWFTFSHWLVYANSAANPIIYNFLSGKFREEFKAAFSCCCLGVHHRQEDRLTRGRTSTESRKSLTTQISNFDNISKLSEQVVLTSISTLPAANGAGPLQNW
Method: Intracellular Ca^2+ Mobilization Assay
The Chinese Hamster Ovary (dHFr−) mutant cell line stably expressing human orexin-1 (hOX1) or human orexin-2 (hOX2) receptors were maintained in Dulbecco's Modified Eagle Medium (1×) with GlutaMax™ 1, 4500 mg/L D-Glucose and Sodium Pyruvate (Catalog No. 31966-021, Invitrogen, Carlsbad, Calif.), 5% dialyzed fetal calf serum (Catalog No. 26400-044), 100 μg/ml penicillin and 100 μg/ml streptomycin. The cells were seeded at 5×10^4 cells/well in the poly-D-lysine treated, 96-well, black/clear-bottomed plates (Catalog No. BD356640, BD Biosciences, Palo Alto, Calif.). 24 h later, the cells were loaded for 1 h at 37° C. with 4 μM Flou-4 acetoxymethyl ester (Catalog No. F-14202, Molecular Probes, Eugene, Oreg.) in FLIPR buffer (1×HBSS, 20 mM HEPES, 2.5 mM Probenecid). Hanks' Balanced Salt Solution (HBSS) (10×) (catalog No. 14065-049) and HEPES (1M) (catalog No. 15630-056) were purchased from Invitrogen, Carlsbad, Calif. Probenecid (250 mM) (catalog No. P8761) was from Sigma, Buchs, Switzerland. The cells were washed five times with FLIPR buffer to remove excess dye and intracellular calcium mobilization, [Ca^2′]I were measured using a Fluorometric Imaging Plate Reader (FLIPR-96, Molecular Devices, Menlo Park, Calif.) as described previously (Malherbe et al., Mol. Pharmacol., 64, 823-832, 2003). Orexin A (catalog No. 1455, Toris Cookson Ltd, Bristol, UK) was used as agonist. Orexin A (50 mM stock solution in DMSO) was diluted in FLIPR buffer+0.1% BSA. The EC50 and EC80 values of orexin-A were measured daily from standard agonist concentration-response curves in CHO(dHFr−)-OX1R and -OX2R cell lines. All compounds were dissolved in 100% DMSO Inhibition curves were determined by addition of 11 concentrations (0.0001-10 μM) of inhibitory compounds and using EC80 value of orexin-A as agonist (a concentration which gave 80% of max agonist response, determined daily). The antagonists were applied 25 min (incubation at 37° C.) before the application of the agonist. Responses were measured as peak increase in fluorescence minus basal, normalized to the maximal stimulatory effect induced by EC80 value of orexin-A or orexin-B Inhibition curves were fitted according to the Hill equation: y=100/(1+(x/IC50)^nH), where nH=slope factor using Excel-fit 4 software (Microsoft).
Kb values were calculated according to the following equation Kb=IC50/(1+[A]/EC50) where A is the concentration of agonist added which is very close to agonist EC80 value, and IC50 and EC50 values were derived from the antagonist inhibition and orexin-A or B agonist curves, respectively.

**Q.** Which Kb does the source give for `O=C(C1CCCN(S(=O)(=O)c2ccccc2Cl)C1)N1CCCC1c1ccc(F)cc1` (centres unmarked) [Example 3, [1-(2-Chloro-benzenesulfonyl)-piperidin-3-yl]-[2-(4-fluoro-phenyl)-pyrrolidin-1-yl]-methanone] here?
**A.** The Kb was 0.0788 µM.

**Q.** For `COc1ccc(Cl)cc1S(=O)(=O)N1CCCC(C(=O)N2CCCC2c2ccccc2)C1` (centres unmarked) [Example 14, [1-(5-Chloro-2-methoxy-benzenesulfonyl)-piperidin-3-yl]-(2-phenyl-pyrrolidin-1-yl)-methanone], which Kb is on record?
**A.** The Kb was 0.0138 µM.

**Q.** For `O=C(C1CCCN(S(=O)(=O)c2ccccc2Cl)C1)N1CCCC1c1ccccc1` (centres unmarked) [Example 7, [1-(2-Chloro-benzenesulfonyl)-piperidin-3-yl]-(2-phenyl-pyrrolidin-1-yl)-methanone], which Kb is on record?
**A.** Its Kb is 0.02 µM.

**Q.** How did the Kb turn out when `O=C(C1CCCN(S(=O)(=O)c2ccccc2Cl)C1)N1CCCC1c1ccccc1Cl` (centres unmarked) [Example 17, [1-(2-Chloro-benzenesulfonyl)-piperidin-3-yl]-[2-(2-chloro-phenyl)-pyrrolidin-1-yl]-methanone] was run?
**A.** The Kb was 0.0113 µM.

**Q.** For `COc1ccccc1S(=O)(=O)N1CCCC(C(=O)N2CCCCC2c2ccccc2)C1` (centres unmarked) [Example 10, [1-(2-Methoxy-benzenesulfonyl)-piperidin-3-yl]-(2-phenyl-piperidin-1-yl)-methanone], which Kb is on record?
**A.** The Kb was 0.0226 µM.

**Q.** For `COc1ccccc1S(=O)(=O)N1CCCC(C(=O)N2CCCC2c2ccccc2)C1` (centres unmarked) [Example 11, [1-(2-Methoxy-benzenesulfonyl)-piperidin-3-yl]-(2-phenyl-pyrrolidin-1-yl)-methanone], which Kb is on record?
**A.** Its Kb is 0.0053 µM.

**Q.** Which Kb does the source give for `COc1ccc(Cl)cc1S(=O)(=O)N1CCCC(C(=O)N2CCCCC2c2ccccc2)C1` (centres unmarked) [Example 16, [1-(5-Chloro-2-methoxy-benzenesulfonyl)-piperidin-3-yl]-(2-phenyl-piperidin-1-yl)-methanone] here?
**A.** Its Kb is 0.0592 µM.

**Q.** Which Kb does the source give for `O=C(C1CCCN(S(=O)(=O)c2cccc(Cl)c2)C1)N1CCCC1c1ccccc1` (centres unmarked) [Example 8, [1-(3-Chloro-benzenesulfonyl)-piperidin-3-yl]-(2-phenyl-pyrrolidin-1-yl)-methanone] here?
**A.** Its Kb is 0.0219 µM.

same assay, conditions: Table 1; CHO(dHFr-)-OX2R cells; orexin-A at EC80 as agonist; Kb=IC50/(1+[A]/EC50); read-out: Kb hOx2

**Q.** For `O=C(C1CCCN(S(=O)(=O)c2ccc(F)cc2)C1)N1CCCCC1c1ccccc1` (centres unmarked) [Example 6, [1-(4-Fluoro-benzenesulfonyl)-piperidin-3-yl]-(2-phenyl-piperidin-1-yl)-methanone], which Kb is on record?
**A.** Its Kb is 0.756 µM.

**Q.** How did the Kb turn out when `O=C(C1CCCN(S(=O)(=O)c2ccc(F)cc2)C1)N1CCCC1c1ccccc1` (centres unmarked) [Example 13, [1-(4-Fluoro-benzenesulfonyl)-piperidin-3-yl]-(2-phenyl-pyrrolidin-1-yl)-methanone] was run?
**A.** The Kb was 0.334 µM.

**Q.** Which Kb does the source give for `O=C(C1CCCN(S(=O)(=O)c2ccccc2Cl)C1)N1CCCC1c1ccc(Cl)c(Cl)c1` (centres unmarked) [Example 18, [1-(2-Chloro-benzenesulfonyl)-piperidin-3-yl]-[2-(3,4-dichloro-phenyl)-pyrrolidin-1-yl]-methanone] here?
**A.** Its Kb is 0.75 µM.

**Q.** For `O=C(C1CCCN(S(=O)(=O)c2ccccc2Cl)C1)N1CCCC1c1cc(Cl)cc(Cl)c1` (centres unmarked) [Example 19, [1-(2-Chloro-benzenesulfonyl)-piperidin-3-yl]-[2-(3,5-dichloro-phenyl)-pyrrolidin-1-yl]-methanone], which Kb is on record?
**A.** Its Kb is 0.67 µM.

**Q.** Which Kb does the source give for `COc1cccc(S(=O)(=O)N2CCCC(C(=O)N3CCCC3c3ccccc3)C2)c1` (centres unmarked) [Example 9, [1-(3-Methoxy-benzenesulfonyl)-piperidin-3-yl]-(2-phenyl-pyrrolidin-1-yl)-methanone] here?
**A.** Its Kb is 0.122 µM.

**Q.** `O=C(C1CCCN(S(=O)(=O)c2ccccc2)C1)N1CCCCC1c1ccccc1` (centres unmarked) [Example 12, (1-Benzenesulfonyl-piperidin-3-yl)-(2-phenyl-piperidin-1-yl)-methanone] was tested. Which Kb did it give?
**A.** The Kb was 0.309 µM.

**Q.** Which Kb does the source give for `O=C(C1CCCN(S(=O)(=O)c2ccccc2Cl)C1)N1CCCCC1c1ccccc1` (centres unmarked) [Example 4, [1-(2-Chloro-benzenesulfonyl)-piperidin-3-yl]-(2-phenyl-piperidin-1-yl)-methanone] here?
**A.** The Kb was 0.118 µM.

**Q.** For `O=C(C1CCCN(S(=O)(=O)c2cccc(Cl)c2)C1)N1CCCCC1c1ccccc1` (centres unmarked) [Example 5, [1-(3-Chloro-benzenesulfonyl)-piperidin-3-yl]-(2-phenyl-piperidin-1-yl)-methanone], which Kb is on record?
**A.** The Kb was 0.55 µM.

**Q.** For `O=C(C1CCCN(S(=O)(=O)c2ccccc2)C1)N1CCCC1c1ccccc1` (centres unmarked) [Example 15, (1-Benzenesulfonyl-piperidin-3-yl)-(2-phenyl-pyrrolidin-1-yl)-methanone], which Kb is on record?
**A.** Its Kb is 0.258 µM.
